Results from PubChem BioAssay (NCI).
“And” between values parts separate entries of the source, which are not always exact repeats. Equal entries are not always repeated.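 The compound was tested at five concentrations on cells cultured in 96-well plates, with a 48-hour exposure period. At the GI50, growth is halved. TGI marks complete inhibition of growth.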

Legend:
Experiment in all cases: DTP human tumour cell line panel, 48 h
A549 NSCLC = tested on: A549 NSCLC
DU-145 prostate = tested on: DU-145 prostate
HCT-116 colon = tested on: HCT-116 colon
HOP-62 NSCLC = tested on: HOP-62 NSCLC
K-562 leukemia = tested on: K-562 leukemia
MDA-MB-231 breast = tested on: MDA-MB-231 breast
OVCAR-8 ovarian = tested on: OVCAR-8 ovarian
PC-3 prostate = tested on: PC-3 prostate
RPMI-8226 leukemia = tested on: RPMI-8226 leukemia
CCRF-CEM leukemia = tested on: CCRF-CEM leukemia

Compound: COc1ccccc1C1=C(Nc2ccccc2)C(=O)NC1=O
- GI50 (A549 NSCLC): > 25 µM
- TGI (A549 NSCLC): > 25 µM
- GI50 (DU-145 prostate): > 25 µM
- TGI (DU-145 prostate): > 25 µM
- GI50 (HCT-116 colon): 24.5 µM
- TGI (HCT-116 colon): > 25 µM
- GI50 (HOP-62 NSCLC): > 25 µM
- TGI (HOP-62 NSCLC): > 25 µM
- GI50 (K-562 leukemia): > 25000 nM
- TGI (K-562 leukemia): > 25 µM
- GI50 (MDA-MB-231 breast): > 25 µM
- TGI (MDA-MB-231 breast): > 25 µM
- GI50 (OVCAR-8 ovarian): > 25 µM
- TGI (OVCAR-8 ovarian): > 25 µM
- GI50 (PC-3 prostate): > 25 µM
- TGI (PC-3 prostate): > 25 µM
- GI50 (RPMI-8226 leukemia): > 25 µM
- TGI (RPMI-8226 leukemia): > 25 µM

Compound: Clc1ccc(-c2csc(Nc3cccc(-c4csc(-c5ccccc5)n4)c3)n2)cc1
- GI50 (A549 NSCLC): 15.2 µM
- TGI (A549 NSCLC): 43.4 µM
- GI50 (DU-145 prostate): 9.15 µM
- TGI (DU-145 prostate): 17.5 µM
- GI50 (HCT-116 colon): 8.97 µM
- TGI (HCT-116 colon): 18.5 µM
- GI50 (HOP-62 NSCLC): 10.7 µM
- TGI (HOP-62 NSCLC): 22.8 µM
- GI50 (K-562 leukemia): 7110 nM
- TGI (K-562 leukemia): 16.3 µM
- GI50 (MDA-MB-231 breast): 6.77 µM
- TGI (MDA-MB-231 breast): 15.3 µM
- GI50 (OVCAR-8 ovarian): 14.6 µM
- TGI (OVCAR-8 ovarian): 39 µM
- GI50 (PC-3 prostate): 5.71 µM
- TGI (PC-3 prostate): 17 µM
- GI50 (RPMI-8226 leukemia): 19.2 µM
- TGI (RPMI-8226 leukemia): > 50 µM

Compound: Cc1nnc2c3nnc(C)n3c3ccccc3n12
- TGI (A549 NSCLC): > 100 µM
- TGI (CCRF-CEM leukemia): > 100 µM
- TGI (HCT-116 colon): > 100 µM
- TGI (HOP-62 NSCLC): > 100 µM
- TGI (K-562 leukemia): > 100 µM
- TGI (OVCAR-8 ovarian): > 100 µM
- TGI (RPMI-8226 leukemia): > 100 µM

Compound: O=S(=O)(O)c1ccc(N=Nc2nc(C(F)(F)F)c(C(F)(F)F)[nH]2)cc1
- TGI (A549 NSCLC): > 100 µM
- TGI (CCRF-CEM leukemia): > 100 µM
- TGI (HCT-116 colon): > 100 µM
- TGI (HOP-62 NSCLC): > 100 µM
- TGI (K-562 leukemia): > 100 µM
- TGI (OVCAR-8 ovarian): > 100 µM
- TGI (RPMI-8226 leukemia): > 100 µM

Compound: CC(=O)N1N=C(c2ccc(Nc3ccnc4cc(Cl)ccc34)cc2)CC1c1ccc(Cl)cc1 (centres undefined)
- GI50 (A549 NSCLC): 8.81 µM
- TGI (A549 NSCLC): > 100 µM
- GI50 (DU-145 prostate): > 100 µM
- TGI (DU-145 prostate): > 100 µM
- GI50 (HCT-116 colon): 38.8 µM
- TGI (HCT-116 colon): > 100 µM
- GI50 (HOP-62 NSCLC): > 100 µM
- TGI (HOP-62 NSCLC): > 100 µM
- GI50 (MDA-MB-231 breast): > 100 µM
- TGI (MDA-MB-231 breast): > 100 µM
- GI50 (OVCAR-8 ovarian): > 100 µM
- TGI (OVCAR-8 ovarian): > 100 µM
- GI50 (PC-3 prostate): 3.02 µM
- TGI (PC-3 prostate): > 100 µM

Compound: CN(C)C(=Nc1nc(=[N+](C)C)ss1)N(C)C
- TGI (A549 NSCLC): > 100 µM
- TGI (CCRF-CEM leukemia): > 100 µM
- TGI (HOP-62 NSCLC): > 100 µM
- TGI (K-562 leukemia): > 100 µM
- TGI (OVCAR-8 ovarian): > 100 µM
- TGI (RPMI-8226 leukemia): > 100 µM

Compound: COC(=O)C1=C(c2ccc(OC)c(OC)c2)OC(c2cc(OC)c(OC)c(OC)c2)C1 (centres undefined)
- TGI (A549 NSCLC): > 100 µM
- TGI (CCRF-CEM leukemia): > 100 µM
- TGI (HOP-62 NSCLC): 47.4 µM
- TGI (K-562 leukemia): > 100 µM
- TGI (OVCAR-8 ovarian): > 100 µM
- TGI (RPMI-8226 leukemia): > 100 µM

Compound: CN=C(NC(=S)N(C)C)N(C)C
- TGI (A549 NSCLC): > 100 µM
- TGI (CCRF-CEM leukemia): > 100 µM
- TGI (HCT-116 colon): > 100 µM
- TGI (HOP-62 NSCLC): > 100 µM
- TGI (K-562 leukemia): > 100 µM
- TGI (OVCAR-8 ovarian): > 100 µM
- TGI (RPMI-8226 leukemia): > 100 µM

Compound: CC(=O)NC1C(OCc2ccccc2)OC(CO)C(O)C1OC(C)C(=O)N[C@@H](C)C(=O)N[C@H](CCC(=O)OCCNc1c2ccccc2nc2cccc([N+](=O)[O-])c12)C(N)=O (some centres undefined)
- TGI (A549 NSCLC): 0.0173 µM
- TGI (CCRF-CEM leukemia): > 0.1 µM and 0.0189 µM
- TGI (HCT-116 colon): 0.00243 µM
- TGI (K-562 leukemia): > 0.1 µM
- TGI (OVCAR-8 ovarian): 0.028 µM
- TGI (RPMI-8226 leukemia): > 0.1 µM

Compound: COc1cccc(-c2ccc3c(c2)C2CCN(Cc4ccccc4)C3C2)c1 (centres undefined)
- GI50 (A549 NSCLC): 7.72 µM
- TGI (A549 NSCLC): 31.8 µM
- GI50 (CCRF-CEM leukemia): 9670 nM
- TGI (CCRF-CEM leukemia): 56.1 µM
- GI50 (DU-145 prostate): 16.4 µM
- TGI (DU-145 prostate): 43.9 µM
- GI50 (HCT-116 colon): 4.8 µM
- TGI (HCT-116 colon): 23.6 µM
- GI50 (HOP-62 NSCLC): 12.1 µM
- TGI (HOP-62 NSCLC): 35.6 µM
- GI50 (MDA-MB-231 breast): 5.61 µM
- TGI (MDA-MB-231 breast): 19 µM
- GI50 (OVCAR-8 ovarian): 11.2 µM
- TGI (OVCAR-8 ovarian): 32.5 µM
- GI50 (PC-3 prostate): 6.99 µM
- TGI (PC-3 prostate): 65.4 µM
- GI50 (RPMI-8226 leukemia): 4.93 µM
- TGI (RPMI-8226 leukemia): 23.6 µM

Compound: C[N+](C)(C)CC1CCC/C1=N/O (centres undefined)
- TGI (A549 NSCLC): > 100 µM
- TGI (CCRF-CEM leukemia): 39.1 µM
- TGI (HCT-116 colon): 46 µM
- TGI (HOP-62 NSCLC): > 100 µM
- TGI (K-562 leukemia): 44.6 µM
- TGI (OVCAR-8 ovarian): 4.34 µM
- TGI (RPMI-8226 leukemia): 47 µM

Compound: COC(=O)C(=CNC(N)=O)C(=O)OC
- TGI (A549 NSCLC): > 100 µM
- TGI (CCRF-CEM leukemia): > 100 µM
- TGI (DU-145 prostate): > 100 µM
- TGI (HCT-116 colon): > 100 µM
- TGI (HOP-62 NSCLC): > 100 µM
- TGI (K-562 leukemia): > 100 µM
- TGI (OVCAR-8 ovarian): > 100 µM
- TGI (PC-3 prostate): > 100 µM
- TGI (RPMI-8226 leukemia): > 100 µM

Compound: O=C(CC1(O)C(=O)Nc2ccc(Br)cc21)c1ccc(Cl)cc1Cl (centres undefined)
- TGI (A549 NSCLC): > 100 µM
- TGI (CCRF-CEM leukemia): 57.1 µM
- TGI (HCT-116 colon): > 100 µM
- TGI (HOP-62 NSCLC): > 100 µM
- TGI (K-562 leukemia): > 100 µM
- TGI (OVCAR-8 ovarian): > 100 µM
- TGI (RPMI-8226 leukemia): 50.7 µM

Compound: CS(=O)(=O)NNS(=O)(=O)c1ccccc1
- TGI (A549 NSCLC): > 100 µM
- TGI (CCRF-CEM leukemia): > 100 µM
- TGI (HCT-116 colon): > 100 µM
- TGI (HOP-62 NSCLC): > 100 µM
- TGI (K-562 leukemia): > 100 µM
- TGI (OVCAR-8 ovarian): > 100 µM
- TGI (RPMI-8226 leukemia): > 100 µM

Compound: CCCCCCCCCCCCCCCCNCCCN(C)CCCN
- TGI (A549 NSCLC): 32.1 µM
- TGI (HCT-116 colon): 38 µM
- TGI (K-562 leukemia): 49.5 µM
- TGI (OVCAR-8 ovarian): 38.5 µM
- TGI (RPMI-8226 leukemia): 46.2 µM

Compound: COc1cc(-c2cc(-c3ccc(Nc4ccnc5cc(Cl)ccc45)cc3)nc(N3CCOCC3)n2)cc(OC)c1OC
- GI50 (A549 NSCLC): 1.76 µM
- TGI (A549 NSCLC): 3.47 µM
- GI50 (CCRF-CEM leukemia): 1540 nM
- TGI (CCRF-CEM leukemia): 6.17 µM
- GI50 (HCT-116 colon): 1.36 µM
- TGI (HCT-116 colon): 3.34 µM
- GI50 (HOP-62 NSCLC): 1.95 µM
- TGI (HOP-62 NSCLC): 4.09 µM
- GI50 (K-562 leukemia): 882 nM
- TGI (K-562 leukemia): 10.4 µM
- GI50 (MDA-MB-231 breast): 1.81 µM
- TGI (MDA-MB-231 breast): 4 µM
- GI50 (OVCAR-8 ovarian): 2.12 µM
- TGI (OVCAR-8 ovarian): 4.7 µM
- GI50 (PC-3 prostate): 1.78 µM
- TGI (PC-3 prostate): 3.69 µM
- GI50 (RPMI-8226 leukemia): 1.57 µM
- TGI (RPMI-8226 leukemia): 5.02 µM

Compound: O=[N+]([O-])c1ccc(Oc2nc(Nc3ccc(O[C@H]4CO[C@H]5[C@@H]4OC[C@@H]5O)c(Cl)c3)ncc2F)c(Cl)c1
- GI50 (A549 NSCLC): 1.86 µM
- TGI (A549 NSCLC): 6.15 µM
- GI50 (CCRF-CEM leukemia): 718 nM
- TGI (CCRF-CEM leukemia): 7.2 µM
- GI50 (DU-145 prostate): 0.917 µM
- TGI (DU-145 prostate): 5.45 µM
- GI50 (HOP-62 NSCLC): 1.63 µM
- TGI (HOP-62 NSCLC): 4.65 µM
- GI50 (K-562 leukemia): 1310 nM
- TGI (K-562 leukemia): 13.3 µM
- GI50 (MDA-MB-231 breast): 1.6 µM
- TGI (MDA-MB-231 breast): 7.39 µM
- GI50 (OVCAR-8 ovarian): 1.21 µM
- TGI (OVCAR-8 ovarian): > 100 µM
- GI50 (PC-3 prostate): 1.66 µM
- TGI (PC-3 prostate): 7.04 µM
- GI50 (RPMI-8226 leukemia): 0.61 µM
- TGI (RPMI-8226 leukemia): 2.56 µM

Compound: COc1cccc(CSCC(=O)O)c1
- TGI (A549 NSCLC): > 100 µM
- TGI (DU-145 prostate): > 100 µM
- TGI (HCT-116 colon): > 100 µM
- TGI (HOP-62 NSCLC): > 100 µM
- TGI (K-562 leukemia): > 100 µM
- TGI (MDA-MB-231 breast): > 100 µM
- TGI (OVCAR-8 ovarian): > 100 µM
- TGI (PC-3 prostate): > 100 µM
- TGI (RPMI-8226 leukemia): > 100 µM

Compound: COC(=O)CCC1CCc2c(OC)ccc(OC)c2C1=O (centres undefined)
- TGI (A549 NSCLC): > 100 µM
- TGI (CCRF-CEM leukemia): > 100 µM
- TGI (HOP-62 NSCLC): > 100 µM
- TGI (K-562 leukemia): > 100 µM
- TGI (OVCAR-8 ovarian): > 100 µM
- TGI (RPMI-8226 leukemia): > 100 µM

Compound: O=C(CCC(=O)Nc1ccc(Cl)c(Cl)c1)CC(=O)c1ccc(F)cc1
- TGI (A549 NSCLC): > 100 µM
- TGI (CCRF-CEM leukemia): > 100 µM
- TGI (HCT-116 colon): > 100 µM
- TGI (HOP-62 NSCLC): > 100 µM
- TGI (K-562 leukemia): > 100 µM
- TGI (OVCAR-8 ovarian): > 100 µM
